From PubChem BioAssay (NCI)
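Compound exposure: 48 hours, 5 concentrations, 96-well plates. TGI marks complete inhibition of growth.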

What was measured:
Assay in all cases: NCI-60 cell line screen, 48 h
IGROV1 ovarian = system: IGROV1 ovarian
MOLT-4 leukemia = system: MOLT-4 leukemia
RPMI-8226 leukemia = system: RPMI-8226 leukemia
RXF 393 renal = system: RXF 393 renal
BT-549 breast = system: BT-549 breast
HOP-92 NSCLC = system: HOP-92 NSCLC
MCF7 breast = system: MCF7 breast
MDA-N = system: MDA-N
NCI/ADR-RES ovarian = system: NCI/ADR-RES ovarian
SK-OV-3 ovarian = system: SK-OV-3 ovarian

Compound	TGI (IGROV1 ovarian)	TGI (MOLT-4 leukemia)	TGI (RPMI-8226 leukemia)	TGI (RXF 393 renal)	TGI (BT-549 breast)	TGI (HOP-92 NSCLC)	TGI (MCF7 breast)	TGI (MDA-N)	TGI (NCI/ADR-RES ovarian)	TGI (SK-OV-3 ovarian)
CCOC(=O)/C(C1=NCCN1C)=C(\O)c1ccccc1	> 100 µM	> 100 µM	> 100 µM	> 100 µM						
CC(=Nc1ccc(Cl)cc1)c1ccncc1		> 100 µM	> 100 µM	> 100 µM	> 100 µM	> 100 µM	> 100 µM	> 100 µM	> 100 µM	
O=C(c1ccccc1)n1cc(/C=C/[N+](=O)[O-])c2ccccc21	54.7 µM	40.3 µM	39.9 µM	36.9 µM		54.1 µM				> 100 µM
COc1ccc(/C(C)=C2\CCCN(Cc3ccccc3)C2)cc1	94.3 µM	59.8 µM	47.4 µM	43.2 µM		60.4 µM	37.8 µM	47.7 µM	57.5 µM	80.3 µM
CNC(=O)O/N=C1\N(C)CN(c2ccccc2)C12CCN(CCCC(=O)c1ccc(F)cc1)CC2	> 100 µM	> 100 µM	> 100 µM	> 100 µM		> 100 µM	> 100 µM	> 100 µM	> 100 µM	> 100 µM
Cc1c2c(n3c(nc4ccccc43)c1C#N)N(c1ccc(F)cc1)CC2	> 100 µM			> 100 µM	> 100 µM	> 100 µM	> 100 µM		> 100 µM	> 100 µM
C#CN1C(=O)c2c(c(-c3ccccc3)c(-c3ccc(Oc4ccc(-c5c(-c6ccccc6)c6c(c(-c7ccccc7)c5-c5ccccc5)C(=O)N(C#C)C6=O)cc4)cc3)c(-c3ccccc3)c2-c2ccccc2)C1=O	> 100 µM	> 100 µM	> 100 µM	> 100 µM		> 100 µM				
Cc1c(-c2coc(-c3ccc([N+](=O)[O-])cc3)n2)c(=O)n(-c2ccccc2)n1C	> 100 µM	> 100 µM	> 100 µM			> 100 µM				> 100 µM
COc1cccc(CCn2c(N)c(-c3cc(Cl)cc(Cl)c3)c3ccc([N+](=O)[O-])cc3c2=O)c1	22.7 µM	> 100 µM	3.02 µM		> 59.5 µM	7.93 µM	89.2 µM	> 100 µM	> 55 µM	> 100 µM
N#CCCC1(CCC#N)S(=O)(=O)OCCOS1(=O)=O		> 100 µM	> 100 µM	> 100 µM	> 100 µM		> 100 µM	> 100 µM	> 100 µM	> 100 µM
CCC1(c2ccc(OC)c(OC)c2)CCN(S(=O)(=O)c2ccc(C)cc2)C1 (stereo not given)	> 100 µM	64.1 µM		> 100 µM	> 100 µM		> 100 µM	> 100 µM	> 100 µM	> 100 µM
Cc1ccc(S(=O)(=O)c2ccc(C)cc2[N+](=O)[O-])c([N+](=O)[O-])c1	> 100 µM		> 100 µM	> 100 µM						
Cc1n[nH]c(=O)n1/N=C/c1ccco1		> 100 µM	> 100 µM	> 100 µM	> 100 µM		> 100 µM		> 100 µM	> 100 µM
O=[N+]([O-])C(C(Cl)=C(Cl)Cl)=C(N1CCCCC1)N1CCCCC1	> 100 µM	> 100 µM	> 100 µM	> 100 µM	> 100 µM		> 100 µM	> 100 µM	> 100 µM	> 100 µM
c1ccc2cc(C3NCCc4[nH]cnc43)ccc2c1 (stereo not given)	> 100 µM	57.9 µM	> 100 µM	> 100 µM		> 100 µM				> 100 µM
O=c1[nH]c(=O)n([C@H]2C[C@@H](CO)[C@@H](O)C2)cc1I	> 100 µM	> 100 µM	> 100 µM			> 100 µM				> 100 µM
COC(=O)C(=O)C(C(=O)OC)C(=O)C(=O)Nc1cc(Cl)c(C)cc1S(=O)(=O)O (stereo not given)	> 100 µM	> 100 µM		> 100 µM						> 100 µM
CC(C)CCNC(=O)c1ccc(CNC(=O)/C=C/c2ccc3ccccc3c2)cc1		> 100 µM	> 100 µM	> 100 µM		> 100 µM	> 100 µM	> 100 µM	> 100 µM	> 100 µM
O=C(O)C12C3CCC(C3)C1(C(=O)O)C1CCC2C1 (stereo not given)	> 100 µM	> 100 µM	48.4 µM	> 100 µM		> 100 µM				> 100 µM
COc1ccc2nc3ccc(OC)cc3c(S(=O)Cc3ccccc3)c2c1 (stereo not given)	21.5 µM	> 23.6 µM	6.6 µM	> 43.5 µM	27.4 µM	> 37.3 µM			46.7 µM	33.9 µM
COc1cc(-c2nc(N)c(C#N)c3c2CCS(=O)(=O)c2ccc(C)cc2-3)cc(OC)c1OC	> 100 µM		> 100 µM		> 100 µM	54.8 µM		> 100 µM	> 100 µM	
Cc1cc2c(cc1Cl)SC(NNCCO)=NS2(=O)=O	> 100 µM	> 100 µM	> 100 µM	> 100 µM	> 100 µM	> 100 µM	> 100 µM		> 100 µM	> 100 µM
Cc1ccccc1N(CCC#N)C1=NN(C(=O)CC(=O)Nc2ccc(Cl)cc2)C(c2ccccc2)C1 (stereo not given)	> 100 µM	> 100 µM	> 100 µM	> 100 µM		> 100 µM				> 100 µM
O=C1C(Cl)C(c2ccc(O)cc2)N1n1cnc2ccccc2c1=O (stereo not given)	> 100 µM	93.4 µM	57.7 µM	35.7 µM		> 100 µM				> 100 µM
O=C(Nn1c(-c2ccccc2)nc2ccccc2c1=O)c1cccc([N+](=O)[O-])c1	> 100 µM	> 100 µM	> 100 µM	> 100 µM	> 100 µM	> 100 µM	> 100 µM	> 100 µM		> 100 µM
CCCCCN1C(=O)C(Cc2ccccc2)N=C(c2ccc(O)cc2)c2cc(Cl)ccc21 (stereo not given)	23.9 µM	26.3 µM	12.1 µM		33.4 µM	25 µM	24.8 µM	> 40.3 µM	25.4 µM	41.1 µM
COC(=O)c1cc(/C=C/C(=O)Cc2ccccc2)cn1S(=O)(=O)c1ccccc1	> 100 µM	> 100 µM		> 100 µM	> 100 µM		> 100 µM	> 100 µM	> 100 µM	> 100 µM

Compound	TGI (IGROV1 ovarian)	TGI (MOLT-4 leukemia)	TGI (RPMI-8226 leukemia)	TGI (RXF 393 renal)	TGI (BT-549 breast)	TGI (HOP-92 NSCLC)	TGI (MCF7 breast)	TGI (MDA-N)	TGI (NCI/ADR-RES ovarian)	TGI (SK-OV-3 ovarian)
CCC1=CC(OCc2ccccc2)C(CCN(Cc2ccccc2)C(=O)OCc2ccccc2)C1 (stereo not given)	29.8 µM	46.5 µM	86.2 µM	17.7 µM		27 µM	35 µM	54.1 µM	35.3 µM	80.6 µM
Cc1cc(NS(=O)(=O)c2ccc(NO)cc2)no1	> 100 µM	> 100 µM		> 100 µM	> 100 µM	> 100 µM	47.1 µM	44.4 µM	> 100 µM	> 100 µM
Nc1c(F)c(F)c2c(c1F)N(CCCCCl)c1ccccc1S2	> 100 µM	> 100 µM	> 100 µM	> 100 µM	> 100 µM	> 100 µM	> 100 µM		> 100 µM	> 100 µM
O=c1ccn(C/C=C/c2ccccc2)c(=S)n1C/C=C/c1ccccc1	> 100 µM	92.6 µM		85.6 µM	> 100 µM	> 100 µM	> 100 µM	> 100 µM	> 100 µM	> 100 µM
O=C1CSC(c2ccccc2)N1c1ccc(-c2ccc(-n3c(-c4ccccc4)nc4ccccc4c3=O)cc2)cc1 (stereo not given)	> 100 µM	> 100 µM	> 100 µM		> 100 µM	> 100 µM	> 100 µM	> 100 µM	> 100 µM	> 100 µM
CC(=O)N1C(c2[nH]c3ccccc3c2Cc2ccccc2)CCN1c1ccccc1 (stereo not given)	> 10 µM	> 10 µM	> 10 µM	> 10 µM	> 10 µM		> 10 µM	> 10 µM	> 10 µM	> 10 µM
O=c1cccccc1[O-].O=c1cccccc1[O-].O=c1cccccc1[O-].[Nd+3]	> 100 µM	> 100 µM	> 100 µM	50.2 µM		> 100 µM				> 100 µM
CC(CC(=O)N1C2CC3CCC2(CS1(=O)=O)C3(C)C)[Si](C)(C)C (stereo not given)	> 100 µM	> 100 µM	> 100 µM	> 100 µM	> 100 µM		> 100 µM	> 100 µM	> 100 µM	
CC(=O)Oc1ccc2c(c1)[nH]c1c3ccc(OC(C)=O)cc3oc(=O)c21	> 100 µM	> 100 µM		68.2 µM	68.2 µM	> 100 µM	90.4 µM	> 100 µM	> 100 µM	> 100 µM
CN1CCCS/C1=C1/SC(=S)N(c2ccccc2)C1=O	> 100 µM	> 100 µM	> 100 µM	> 100 µM		> 100 µM				> 100 µM
CN1N=C(c2ccncc2)OC1c1cccc(F)c1 (stereo not given)	> 100 µM	> 100 µM	> 100 µM	> 100 µM			> 100 µM	> 100 µM	> 100 µM	> 100 µM
N#CCCC(C#N)(C#N)CCC#N	> 100 µM	> 100 µM	> 100 µM							> 100 µM
O=C(Nc1ccccc1)OCCN=c1c2ccccc2ccc2ccccc12	> 100 µM	42.6 µM	42.2 µM	75.9 µM	34.1 µM	53.2 µM		39 µM	65.9 µM	> 100 µM
CN1CCS(=O)(=O)NC(Cc2ccccc2)C(=O)N2CCCC2C1=O (stereo not given)	> 100 µM	> 100 µM	> 100 µM							> 100 µM
O=C1CC(n2ccnc2)c2c(Cl)sc(Cl)c21 (stereo not given)	26.6 µM	> 24 µM	> 100 µM	33.9 µM	32.8 µM		28 µM	50.4 µM	71.5 µM	> 79.5 µM
C/C=C1\Oc2ccc(OC)cc2S1(=O)=O	> 100 µM	> 100 µM	> 100 µM	> 100 µM		> 100 µM				> 100 µM
COP12(OC)NC(=O)OC1(C(F)(F)F)c1ccccc1O2 (stereo not given)	> 100 µM	> 100 µM		> 100 µM						> 100 µM
CCOC(=O)c1ccc(N=C2Sc3nc4ccccc4n3C2=Nc2ccc(C(=O)OCC)cc2)cc1	60.4 µM	> 100 µM		59.3 µM		35.9 µM	31.3 µM	65 µM	72.7 µM	> 100 µM
O=C1CCC(=O)c2ccccc2N1	> 100 µM	> 100 µM	> 100 µM	> 100 µM		> 100 µM				> 100 µM
COc1nc(=O)[nH]c2c1C(c1ccc([N+](=O)[O-])cc1)c1c(OC)nc(=O)[nH]c1O2	> 100 µM	> 100 µM	> 100 µM	> 100 µM	> 100 µM			> 100 µM	> 100 µM	> 100 µM
N#Cc1c(-c2ccccc2)cn(C(=O)c2ccccc2)c1N	> 100 µM	> 100 µM	> 100 µM			> 100 µM	> 100 µM	> 100 µM	> 100 µM	> 100 µM
c1ccc2c(c1)CCN1CCc3ccccc3C1C2 (stereo not given)	> 100 µM	> 100 µM	> 100 µM		> 100 µM	> 100 µM	> 100 µM	> 100 µM	> 100 µM	> 100 µM
CN1C(=O)C(=Cc2ccc(Br)cc2)C(=O)N(C)C1=O		> 100 µM	> 100 µM	> 100 µM	> 100 µM	> 100 µM	> 100 µM		> 100 µM	> 100 µM
COc1ccc(OC(=O)N2C/C(=C\c3ccccc3)C(=O)/C(=C/c3ccccc3)C2)cc1	16.3 µM	8.06 µM	0.172 µM	8.71 µM	4.67 µM	40.1 µM	4.77 µM	3.47 µM		24.9 µM
COc1ccc(S(=O)(=O)N/N=C(\C)CN2C(=O)c3ccccc3C2=O)cc1OC	> 100 µM	> 100 µM	> 100 µM			> 100 µM				> 100 µM
c1cc2c(cc1C1OCC3C(c4ccc5c(c4)OCO5)OCC13)OCO2 (stereo not given)	> 100 µM	> 100 µM		> 100 µM		> 100 µM				> 100 µM
